From patent publication US5674977A, “Branched synthetic peptide conjugate” (The Ontario Cancer Institute, priority 1994, dated 1997)
Numbered stars: 1 amine (or outer) side, 2 acyl side, 3 side chain; on linkers, the order of the positions; unused ones are H or OH. Square brackets hold non-standard residues; d marks the D form. Peptide text beside a SMILES is read from it. X1 = C[C@@H](O)[C@@H](C(=O)[*:2])N(c1c2ccccc2nc2ccccc12)[*:1]

Test system: CHO cells
Assay: MTT cell viability (cytotoxicity) assay
Type: cell-based, Chinese hamster
Conditions: concentrations as high as 100 μM, 2 hour incubation period
Source text: The cytotoxicity of peptide 1 and octopeptides 2-5 was established in Chinese hamster ovary (CHO) cells in order to select a minimal octopeptide concentration suitable for detecting the constructs by flow cytometry and fluorescence microscopy on live cells. The cytotoxicity of each construct was established using the MTT cell viability assay (FIG. 1; Mosmann, 1983). […] Linear polymers having a mass of less than 13 kDa were shown not to be cytotoxic to HeLa cells (Arnold et al., 1979). […] At a concentration of 1 μM, none of the octopeptides were cytotoxic to CHO cells (FIG. 1). […] The penetration and localization of acridine and rhodamine chromophores in viable CHO cells were observed during fluorescence microscopy and flow cytometry experiments by exposing cells to concentrations of octopeptides ranging from 0.1 to 1 μM. […]
The quantitative MTT colorimetric assay developed by Mosmann (1983) was used to determine the toxicity of peptide constructs of the invention toward CHO cells. […] The blue MTT formazan product generated by living cells was quantified by measuring the optical density of the cellular extract at 620 nm. […] Absorbance values were translated into measurements of cell viability and reflect the average of experiments performed in triplicate.

For `CC(C)[C@H](NC(=O)[C@H](CCCCN)NC(=O)[C@H](CCCNC(=N)N)NC(=O)[C@H](CCCCN)NC(=O)[C@H](CCCCN)NC(=O)[C@H](CCCCN)NC(=O)[C@@H]1CCCN1C(=O)[C@@H]1CCCN1C(=O)[C@@H](Nc1c2ccccc2nc2ccccc12)[C@@H](C)O)C(=O)N[C@@H](CCC(=O)O)C(=O)N[C@@H](CC(=O)O)C(=O)N1CCC[C@H]1C(=O)N[C@@H](CCCCN)C(=O)N[C@@H](CCCCN)C(=O)N[C@@H](CCCCN)C(=O)N[C@@H](CCCCN)C(=O)N[C@@H](CCCCN)C(=O)O` [peptide 1, Acr-NLS-CTS] (H-[X1]PPKKKRKVEDPKKKKK-OH), the “toxicity to CHO cells” value was “not toxic”.
